Here are results for four compounds from patent publication US10143697B2, “Pharmaceutic composition comprising of HDAC inhibitor and a steroid and the use thereof” (VALCURIA AB, priority 2011, dated 2018).

For test [1], the system named is WSU-NHL cells. As to the kind of experiment: pretreatment with Trichostatin A or Belinostat, Prednisolone and CHOP, viability by trypan blue exclusion. As to conditions: for sensitization to CHOP-treatment: pretreatment with the HDAC inhibitor alone before CHOP. The protocol:
Viability was assessed by trypan blue exclusion at indicated time points (n=3). Significant differences were evaluated using Student's unpaired t-test. All tests were two-sided. Effects were considered statistically significant at *P<0.05, **P<0.01, ***P<0.001.

Test [2] has as its system WSU-NHL cells. As to the kind of experiment: pretreatment with VPA and prednisolone before CHOP, viability by trypan blue exclusion. As to conditions: prednisolone (20 μg/ml) added to VPA pretreatment before CHOP, compared to pretreatment with VPA alone. The test is classed as cell-based. The text has this: Pretreatment with VPA before CHOP could theoretically increase the response to CHOP therapy through induction of DNA damage. However, VPA treatment could result in symptoms such as somnolence in a patient. These symptoms could be counteracted by simultaneous treatment with prednisolone. […] All tests were two-sided.

The next test concerns SU-DHL-8 cells. As to the kind of experiment: Rituximab antibody-dependent cellular cytotoxicity (ADCC) with NK cells, dead target cells PKH26/7-AAD double positive. The test is classed as cell-based. The protocol:
(§1) To estimate the impact of VPA on the antibody-dependent-cellular cytotoxicity (ADCC) induced by the CD20 antibody Rituximab. […]
(§2) NK cells were added as an effector to target cell ratio of 10:1, thereafter the cells were incubated for an additional 20 hours. Dead target cells were identified as double positive for PKH26 and 7-AAD and used as readout of the assay.

For test [3], the system named is WSU-NHL cells. Described as above. The test is classed as cell-based. The method, then: as §1, §2
[4] abbreviates: Rituximab 0.1 μg/ml, +NK Cells + 1.5 mM VPA.
Setting [5] is: Rituximab 0.1 μg/ml, +NK Cells + 1.5 mM VPA + CHOP.
Setting [6] is: Rituximab 0.1 μg/ml, +NK cells + CHOP.
[7] abbreviates: Rituximab 1 μg/ml, +NK Cells + 1.5 mM VPA.
Where [8] appears, read: Rituximab 1 μg/ml, +NK Cells + 1.5 mM VPA + CHOP.
Setting [9] is: Rituximab 1 μg/ml, +NK cells + CHOP.
Setting [10] is: Rituximab 10 μg/ml, +NK Cells + 1.5 mM VPA.
The mark [11] stands for this setting: Rituximab 10 μg/ml, +NK Cells + 1.5 mM VPA + CHOP.
Setting [12] is: Rituximab 10 μg/ml, +NK cells + CHOP.

Consider `O=C(/C=C/c1cccc(S(=O)(=O)Nc2ccccc2)c1)NO` [Belinostat], for which, in the test on WSU-NHL cells [1], the “sensitization to CHOP-treatment” value is given as “sensitized DLBCL cell lines to CHOP-induced cell death”.
For the compound `C[C@]12C=CC(=O)C=C1CC[C@@H]1[C@@H]2[C@@H](O)C[C@@]2(C)[C@H]1CC[C@]2(O)C(=O)CO` [Prednisolone], the CHOP-induced cell death entry in the test on WSU-NHL cells [2] is “further increases significantly CHOP-induced cell death”; in the test on WSU-NHL cells [1] (prednisolone (20 μg/ml) added to HDAC inhibitor pretreatment before CHOP) it was “significantly increases CHOP-induced cell death”.
For `CC(/C=C/C(=O)NO)=C\[C@@H](C)C(=O)c1ccc(N(C)C)cc1` [TSA, Trichostatin A], the “sensitization to CHOP-treatment” value in the test with WSU-NHL cells [1] is “sensitizes lymphoma cell lines to CHOP-treatment”.
For the compound Rituximab: the CD20 antibody Rituximab, the “percentage of dead cells, Mean” value stood at 43% with SU-DHL-8 cells (setting [4]); 50% with SU-DHL-8 cells (setting [5]); 38% in the test on SU-DHL-8 cells (Rituximab 0.1 μg/ml, +NK cells); 38% with SU-DHL-8 cells (setting [6]); 49% in the test with SU-DHL-8 cells (setting [7]); 63% in the test with SU-DHL-8 cells (setting [8]). For the same compound, the “percentage of dead cells, Mean” value stood at 50% in the test with SU-DHL-8 cells (Rituximab 1 μg/ml, +NK cells); 49% in the test on SU-DHL-8 cells (setting [9]); 58% in the test with SU-DHL-8 cells (setting [10]); 66% with SU-DHL-8 cells (setting [11]); 60% in the test on SU-DHL-8 cells (Rituximab 10 μg/ml, +NK cells); 59% with SU-DHL-8 cells (setting [12]). Further, the “percentage of dead cells, Mean” value is on record as 40% in the test on WSU-NHL cells [3] (setting [4]); 60% with WSU-NHL cells [3] (setting [5]); 35% in the test with WSU-NHL cells [3] (Rituximab 0.1 μg/ml, +NK cells); 45% in the test with WSU-NHL cells [3] (setting [6]); 50% in the test on WSU-NHL cells [3] (setting [7]); 60% in the test with WSU-NHL cells [3] (setting [8]). Also, the “percentage of dead cells, Mean” value in the test with WSU-NHL cells [3] (Rituximab 1 μg/ml, +NK cells) turned out to be 45%; with WSU-NHL cells [3] (setting [9]), 54%; in the test on WSU-NHL cells [3] (setting [10]), 56%; in the test on WSU-NHL cells [3] (setting [11]) it was 66%; in the test with WSU-NHL cells [3] (Rituximab 10 μg/ml, +NK cells), 54%; in the test with WSU-NHL cells [3] (setting [12]) it was 61%.
